Test results from patent US10188642B2, “Pharmacologically active compounds” (Cancer Research Technology Limited, priority 2012, dated 2019).
Where two headings read alike, the source gives them in different places.

Molecular target: full length MPS1 (Homo sapiens (Human), UniProt P33981)
Experiment: Measurement of inhibition of MPS1 kinase (Caliper EZ reader mobility shift assay)
Format: biochemical
Experimental: Measurement of Inhibition of MPS1 Kinase
(5 μM), ATP(10 μM), either DMSO (1% v/v) or the test compound (in the range 0.25 nM-100 μM in 1% DMSO) and assay buffer (50 mM HEPES (pH 7.0), 0.02% NaN3, 0.01% BSA, 0.1 mM Orthovandate, […], 1 μM DTT, Roche protease inhibitor). The reaction was carried out for 60 min at room temperature and stopped by the addition of buffer (10 μl) containing 20 mM EDTA, 0.05% (v/v) Brij-35, in 0.1M HEPES-buffered saline (Free acid, Sigma, UK). The plate was read on a Caliper EZ reader II (Caliper Life Sciences).
The reader provides a Software package (‘Reviewer’) which converts the peak heights into % conversion by measuring both product and substrate peak and also allows selection of control well which represent 0% and 100% inhibition respectively. The % inhibition of the compounds is calculated relative to the means of selected control wells. IC50s are determined by testing the compounds at a range of concentrations from 0.25 nM-100 μM. The % inhibitions at each concentration are then fitted to a 4 parameter logistic fit: y=(a+((b−a)/(1+((c/x^d)))) where a=asym min, b=asym max, c=IC50 and d=hill coefficient

[1] = full length MPS1 12.5 nM or 3 nM, H236 peptide 5 μM, ATP 10 μM, 60 min at room temperature, read-out: MPS1 IC50

full length MPS1, sequence (P33981 whole entry): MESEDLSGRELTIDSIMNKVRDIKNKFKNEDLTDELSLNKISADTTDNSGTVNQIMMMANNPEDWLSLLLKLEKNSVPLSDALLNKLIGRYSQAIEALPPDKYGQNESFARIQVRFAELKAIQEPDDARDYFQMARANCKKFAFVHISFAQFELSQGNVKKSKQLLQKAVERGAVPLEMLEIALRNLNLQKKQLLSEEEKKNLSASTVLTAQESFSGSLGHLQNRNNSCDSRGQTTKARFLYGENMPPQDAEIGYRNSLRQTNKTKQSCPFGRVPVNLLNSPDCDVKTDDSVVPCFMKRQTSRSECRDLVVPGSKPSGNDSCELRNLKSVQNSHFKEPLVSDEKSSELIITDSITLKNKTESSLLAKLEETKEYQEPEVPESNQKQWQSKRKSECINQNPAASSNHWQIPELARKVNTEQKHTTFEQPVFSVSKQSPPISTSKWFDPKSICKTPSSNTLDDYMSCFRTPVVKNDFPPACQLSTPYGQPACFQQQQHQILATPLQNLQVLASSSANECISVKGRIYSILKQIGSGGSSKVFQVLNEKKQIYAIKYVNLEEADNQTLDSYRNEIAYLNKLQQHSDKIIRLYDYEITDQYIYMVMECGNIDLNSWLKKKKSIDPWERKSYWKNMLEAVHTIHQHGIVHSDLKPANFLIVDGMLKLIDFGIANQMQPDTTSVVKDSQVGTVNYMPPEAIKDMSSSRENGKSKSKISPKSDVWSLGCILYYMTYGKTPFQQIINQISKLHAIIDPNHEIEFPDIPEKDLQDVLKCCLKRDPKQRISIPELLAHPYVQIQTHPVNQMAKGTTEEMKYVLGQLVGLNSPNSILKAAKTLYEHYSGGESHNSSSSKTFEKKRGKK

SMILES	IC50 [nM]	IC50 [1] [nM]
COc1cc(-c2cnc(C)n2C)ccc1Nc1cc2cc(-c3cnn(CC(O)CO)c3)ccc2cn1 (racemic) [Example 109, Racemic 3-(4-(3-((4-(1,2-Dimethyl-1H-imidazol-5-yl)-2-methoxyphenyl)amino)isoquinolin-6-yl)-1H-pyrazol-1-yl)propane-1,2-diol]	3	–
CNC(=O)c1ccc2cnc(Nc3ccc(-c4cnn(C)c4)cc3OC)cc2n1 [Example 108, 7-(2-Methoxy-4-(1-methyl-1H-pyrazol-4-yl)phenylamino)-N-methyl-1,6-naphthyridine-2-carboxamide]	–	7
COCCn1cc(-c2ccc3cnc(Nc4ccc(-c5cnn(C)c5CO)cc4OC)cc3c2)cn1 [Example 32, (4-(3-Methoxy-4-((6-(1-(2-methoxyethyl)-1H-pyrazol-4-yl)isoquinolin-3-yl)amino)phenyl)-1-methyl-1H-pyrazol-5-yl)methanol]	–	3
